Several values for one entry are separate records, joined by “and”; a condition that tells them apart may be missing. Identical values can stand only once. Like-named read-outs stand apart in the source and are kept apart here.
Columns and labels:
X-MLV [1] = assay type: cell-based, Xenotropic Murine leukemia virus; details: for RF (Reduction Factor) / Sample Titer: 2-8° C.
X-MLV [2] = assay type: cell-based, Xenotropic Murine leukemia virus
SuHV-1 = assay type: cell-based, Suid herpesvirus 1
MMV = assay type: cell-based, Murine minute virus; details: 2-8° C.; for RF (Reduction Factor): 5 mM Tris + 1.0M Arginine-HCl (pH 7.0)
polio virus = details: cited from earlier work
X-MLV [3] = assay: TRITON X-100 X-MLV inactivation in GE2-Fcγ-Fcε clarified conditioned media, TCID50 assay; assay type: cell-based, Xenotropic Murine leukemia virus
Description: Virus inactivation kinetics obtained by exposure to low pH, TRITON® X-100 and arginine were studied using sample process intermediates of a recombinant antibody designated GE2-Fcγ-Fcε. All studies were performed at 2-8° C.
For the TRITON® X-100 inactivation studies, TRITON® X-100 was added to the GE2-Fcγ-Fcε clarified conditioned media (CCM) at concentrations of 0.10% (v/v) and 0.20% (v/v). MABSELECT™ (GE Healthcare Bio-Sciences Corp., Piscataway, N.J., USA) Protein-A chromatography eluates containing GE2-Fcγ-Fcε with the pH adjusted to 3.7 or 3.9 were used as the starting material for the low pH viral inactivation studies. Neutralized MABSELECT™ Eluate buffer (1.0 M arginine-HCl, ˜5 mM Tris, pH 7.3 (+/−) 0.5) and neutralized MABSELECT™ Eluate buffer containing GE2-Fcγ-Fcε were also used as process intermediates for the additional inactivation studies. The process intermediates used in these studies were known to be stable under the examined conditions.
TRITON® X-100 inactivation experiments were performed in duplicate using final concentrations of 0.10% or 0.20% (v/v) TRITON® X-100 in GE2-Fcγ-Fcε clarified conditioned media.

[4] = 1.0 M arginine-HCl, ~5 mM Tris, pH ~7.0, with GE2-Fcγ-Fcε 3.3 mg/mL, 2-8° C., 120 min
[5] = 5 mM Tris + 1.0M Arginine-HCl (pH 7.0), 2-8° C., 15 min
[6] = 5 mM Tris + 1.0M Arginine-HCl (pH 7.0), 2-8° C., 30 min
[7] = 5 mM Tris + 1.0M Arginine-HCl (pH 7.0), 2-8° C., 60 min
[8] = 5 mM Tris + 1.0M Arginine-HCl (pH 7.0), 2-8° C., 120 min
[9] = 5 mM Tris + 1.0M Arginine-HCl (pH 7.0), 2-8° C., 240 min (non-quenched)
[10] = 5 mM Tris + 1.0M Arginine-HCl (pH 7.0), 2-8° C., 240 min (quenched)
[11] = 0.10% (v/v) in GE2-Fcγ-Fcε clarified conditioned media, 2-8° C., 5 min
[12] = 0.10% (v/v) in GE2-Fcγ-Fcε clarified conditioned media, 2-8° C., 45 min
[13] = 0.10% (v/v) in GE2-Fcγ-Fcε clarified conditioned media, 2-8° C., 120 min
[14] = 0.20% (v/v) in GE2-Fcγ-Fcε clarified conditioned media, 2-8° C., 30 min
[15] = 0.20% (v/v) in GE2-Fcγ-Fcε clarified conditioned media, 2-8° C., 45 min

Compound: NCC(=O)O [Glycine, glycine, reference compound]
- Adjusted titer of sample (X-MLV [1]; pH 7): 6.00 Log10 TCID50/mL and 5.50 Log10 TCID50/mL and 5.60 Log10 TCID50/mL and 5.38 Log10 TCID50/mL and 5.63 Log10 TCID50/mL
- Adjusted titer of sample (Output virus titer) (X-MLV [1]; pH 7): 5.63 Log10 TCID50/mL and 5.88 Log10 TCID50/mL
- Titer of quenched sample (X-MLV [1]; pH 7): 5.00 Log10 TCID50/mL and 4.50 Log10 TCID50/mL and 4.63 Log10 TCID50/mL and 4.38 Log10 TCID50/mL and 4.88 Log10 TCID50/mL
- Titer of sample from TCID50 assay (X-MLV [1]; pH 7): 5.60 Log10 TCID50/mL

Compound: N=C(N)NCCC[C@H](N)C(=O)O [Arginine, arginine]
- X-MLV Reduction Factor in all of the arginine studies (X-MLV [2]; 1 M arginine, with and without GE2-Fcγ-Fcε, 120 min of exposure): ≥ 4.1
- Output titer (X-MLV [2]; 1.0 M arginine-HCl, ~5 mM Tris, pH ~7.0, no GE2-Fcγ-Fcε, 2-8° C., 120 min): ≦1.17 Log10 TCID50/mL
- Output titer (X-MLV [2]; [4]): ≦1.17 Log10 TCID50/mL
- RF (Reduction Factor) (X-MLV [2]; [4]): ≧4.2
- exposure time after which X-MLV was at, or below, detectable levels (X-MLV [2]; neutral solution containing 1 M arginine, Runs 9-12): 15 min
- RF (Reduction Factor) (X-MLV [1]; 5 mM Tris + 0.10M Arginine-HCl (pH 7.0), 30 min): 0.2 and 0.3
- RF (Reduction Factor) (X-MLV [1]; 5 mM Tris + 0.10M Arginine-HCl (pH 7.0), 120 min): 0.3
- RF (Reduction Factor) (X-MLV [1]; 5 mM Tris + 0.50M Arginine-HCl (pH 7.0), 15 min): 1.7 and 1.6
- RF (Reduction Factor) (X-MLV [1]; 5 mM Tris + 0.50M Arginine-HCl (pH 7.0), 30 min): 2.3 and 2.0
- RF (Reduction Factor) (X-MLV [1]; 5 mM Tris + 0.50M Arginine-HCl (pH 7.0), 60 min): 2.7 and 2.5
- RF (Reduction Factor) (X-MLV [1]; 5 mM Tris + 0.50M Arginine-HCl (pH 7.0), 120 min): 3.4 and 3.5
- RF (Reduction Factor) (X-MLV [1]; 5 mM Tris + 0.50M Arginine-HCl (pH 7.0), 120 min, listed as arginine): 3.4 and 3.5
- Sample Titer (X-MLV [1]; 15 min): 5.59 Log10 TCID50/mL and 5.71 Log10 TCID50/mL and 4.10 Log10 TCID50/mL and 4.04 Log10 TCID50/mL
- Sample Titer (X-MLV [1]; 30 min): 5.71 Log10 TCID50/mL and 5.29 Log10 TCID50/mL and 3.50 Log10 TCID50/mL and 3.68 Log10 TCID50/mL
- Sample Titer (X-MLV [1]; 60 min): 5.65 Log10 TCID50/mL and 5.29 Log10 TCID50/mL and 3.03 Log10 TCID50/mL and 3.15 Log10 TCID50/mL
- X-MLV inactivation (in words) (X-MLV [1]; pH 7): did not occur
- Adjusted titer of sample (SuHV-1; [5]): 2.95 Log10 TCID50/mL and 2.89 Log10 TCID50/mL
- RF (Reduction Factor) (SuHV-1; [5]): 2.30 and 2.11
- Titer of quenched sample (SuHV-1; [5]): 1.95 Log10 TCID50/mL and 1.89 Log10 TCID50/mL
- Adjusted titer of sample (SuHV-1; [6]): ≦1.57 Log10 TCID50/mL
- Titer of quenched sample (SuHV-1; [6]): ≦0.57 Log10 TCID50/mL
- Adjusted titer of sample (SuHV-1; [7]): ≦1.57 Log10 TCID50/mL
- Titer of quenched sample (SuHV-1; [7]): ≦0.57 Log10 TCID50/mL
- Adjusted titer of sample (SuHV-1; [8]): ≦1.57 Log10 TCID50/mL
- Titer of quenched sample (SuHV-1; [8]): ≦0.57 Log10 TCID50/mL
- Adjusted titer of sample (SuHV-1; [9]): ≦1.53 Log10 TCID50/mL
- Titer of sample from TCID50 assay (SuHV-1; [9]): ≦1.53 Log10 TCID50/mL
- Adjusted titer of sample (Output virus titer) (SuHV-1; [10]): ≦1.57 Log10 TCID50/mL
- Titer of quenched sample (SuHV-1; [10]): ≦0.57 Log10 TCID50/mL
- exposure time after which SuHV-1 titer was below the assay limit of detection (SuHV-1; 1.0 M arginine (pH 7.0), duplicate runs): 30 min
- RF (Reduction Factor) (MMV; 240 min (non-quenched)): 0.30 and 0.17
- RF (Reduction Factor) (MMV; 240 min (quenched)): −0.25
- Adjusted titer of sample (MMV): 6.83 Log10 TCID50/mL and 7.33 Log10 TCID50/mL
- Adjusted titer of sample (Output virus titer) (MMV): 7.38 Log10 TCID50/mL and 7.75 Log10 TCID50/mL
- Titer of quenched sample (MMV): 6.38 Log10 TCID50/mL and 6.75 Log10 TCID50/mL
- Titer of sample from TCID50 assay (MMV): 6.83 Log10 TCID50/mL and 7.33 Log10 TCID50/mL
- Adjusted titer of sample (MMV; 15 min): 7.50 Log10 TCID50/mL and 7.25 Log10 TCID50/mL
- Titer of quenched sample (MMV; 15 min): 6.50 Log10 TCID50/mL and 6.25 Log10 TCID50/mL
- Adjusted titer of sample (MMV; 30 min): 7.63 Log10 TCID50/mL and 7.38 Log10 TCID50/mL
- Titer of quenched sample (MMV; 30 min): 6.63 Log10 TCID50/mL and 6.38 Log10 TCID50/mL
- Adjusted titer of sample (MMV; 60 min): 7.63 Log10 TCID50/mL and 7.75 Log10 TCID50/mL
- Titer of quenched sample (MMV; 60 min): 6.63 Log10 TCID50/mL and 6.75 Log10 TCID50/mL
- Adjusted titer of sample (MMV; 120 min): 7.50 Log10 TCID50/mL and 7.75 Log10 TCID50/mL
- Titer of quenched sample (MMV; 120 min): 6.50 Log10 TCID50/mL and 6.75 Log10 TCID50/mL
- inactivation of non-enveloped polio virus (in words) (polio virus): ineffective

Compound: TRITON ® X-100
- Adjusted titer of sample (X-MLV [3]; [11]): ≦2.00 Log10 TCID50/mL
- Titer of quenched sample (X-MLV [3]; [11]): ≦0.70 Log10 TCID50/mL
- Adjusted titer of sample (X-MLV [3]; [12]): ≦1.99 Log10 TCID50/mL
- Titer of quenched sample (X-MLV [3]; [12]): ≦0.69 Log10 TCID50/mL
- Adjusted titer of sample (Output virus titer) (X-MLV [3]; [13]): ≦1.99 Log10 TCID50/mL
- RF (Reduction Factor) (X-MLV [3]; [13]): ≥ 3.1
- Titer of quenched sample (X-MLV [3]; [13]): ≦0.69 Log10 TCID50/mL
- exposure time after which X-MLV was below detection limits (X-MLV [3]; 0.10% and 0.20% TRITON X-100): 5 min
- RF (Reduction Factor) (X-MLV [3]; 0.20% (v/v) in GE2-Fcγ-Fcε clarified conditioned media, 2-8° C., 15 min): ≧3.1
- Adjusted titer of sample (X-MLV [3]; [14]): ≦1.99 Log10 TCID50/mL
- RF (Reduction Factor) (X-MLV [3]; [14]): ≧3.1
- Titer of quenched sample (X-MLV [3]; [14]): ≦0.69 Log10 TCID50/mL
- Adjusted titer of sample (X-MLV [3]; [15]): ≦1.99 Log10 TCID50/mL
- RF (Reduction Factor) (X-MLV [3]; [15]): ≧3.1
- Titer of quenched sample (X-MLV [3]; [15]): ≦0.69 Log10 TCID50/mL
- RF (Reduction Factor) (X-MLV [3]; 0.20% (v/v) in GE2-Fcγ-Fcε clarified conditioned media, 2-8° C., 120 min): ≥ 2.6
